Data as given in ChEMBL document CHEMBL1201862, “PubChem BioAssay data set” (2004).
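Cells were grown in 96-well plates and exposed to each compound for 48 hours at five concentrations; endpoints were interpolated linearly between bracketing concentrations, or set to the highest concentration if not reached. The concentration for 50% growth inhibition is given as GI50.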 Active and inactive are the calls of the source. No stated cut-off is given here; in the data, active = GI50 up to about 1.1 µM and inactive = higher.

Legend:
Assay in all cases: DTP human tumour cell line panel, 48 h
[1] = system: RPMI-8226
[2] = system: SK-MEL-2
[3] = system: SF-268
[4] = system: NCI-H226
[5] = system: SNB-75
[6] = system: SF-295
[7] = system: CAKI-1
[8] = system: SF-539
[9] = system: HL-60
[10] = system: SR
[11] = system: HCT-116
[12] = system: SK-MEL-28
[13] = system: U-251
[14] = system: EKVX
[15] = system: SK-OV-3
[16] = system: NCI-H522
[17] = system: HCT-15

| Structure (SMILES) | GI50 [1] | GI50 [2] | GI50 [3] | GI50 [4] | GI50 [5] | GI50 [6] | GI50 [7] | GI50 [8] | GI50 [9] | GI50 [10] | GI50 [11] | GI50 [12] | GI50 [13] | GI50 [14] | GI50 [15] | GI50 [16] | GI50 [17] |
| --- | --- | --- | --- | --- | --- | --- | --- | --- | --- | --- | --- | --- | --- | --- | --- | --- | --- |
| COc1nc(N)c(C(=O)CCl)c(=O)n1C | 2.71 µM (inactive) | 12.5 µM (inactive) | 19.1 µM (inactive) | 4.5 µM (inactive) | 13.3 µM (inactive) | 15.2 µM (inactive) | 7.41 µM (inactive) | 18 µM (inactive) | 2.17 µM (inactive) | 15.3 µM (inactive) | 10.9 µM (inactive) | 12 µM (inactive) | 15.5 µM (inactive) | 15.1 µM (inactive) |  |  |  |
| O=C1c2ccccc2OCC1/C=N/O (stereo unspecified) | > 100 µM (inactive) | 86.3 µM (inactive) | > 58.9 µM (inactive) | > 100 µM (inactive) | > 100 µM (inactive) | > 100 µM (inactive) |  | 76 µM (inactive) | > 100 µM (inactive) |  | > 100 µM (inactive) | 51.6 µM (inactive) | > 100 µM (inactive) | 65.6 µM (inactive) | > 100 µM (inactive) | 24.9 µM (inactive) | 63.7 µM |
| Cn1cc(NC(=O)c2cc(NC(=O)CCCCCCCC(=O)Nc3cc(C(=O)Nc4cc(C(=O)NCCC(=N)N)n(C)c4)n(C)c3)cn2C)cc1C(=O)NCCC(=N)N |  | 14.1 µM (inactive) | 19.8 µM (inactive) |  | 35.2 µM (inactive) | > 100 µM (inactive) | 18.8 µM (inactive) | 17.7 µM (inactive) | 3.15 µM (inactive) | 5.26 µM (inactive) | 17.9 µM (inactive) | 11.7 µM (inactive) | 17.2 µM (inactive) | 22 µM (inactive) | > 100 µM (inactive) |  | > 100 µM |
| COc1cc(/C=C(/C#N)C(N)=O)ccc1O | > 100 µM (inactive) | > 70.8 µM (inactive) | > 100 µM (inactive) | > 88.9 µM (inactive) | > 50.1 µM (inactive) | > 100 µM (inactive) | > 100 µM (inactive) | > 100 µM (inactive) | > 100 µM (inactive) |  | > 100 µM (inactive) | > 100 µM (inactive) | > 100 µM (inactive) | > 100 µM (inactive) | > 100 µM (inactive) | > 100 µM (inactive) | > 100 µM |
| C#CCC[C@@H]1O[C@@]1(C)CC/C=C(\C)CC/C=C/C=O | 19.3 µM (inactive) | 55.7 µM (inactive) | 22.2 µM (inactive) | 60.3 µM (inactive) | 42.6 µM (inactive) | 26.5 µM (inactive) |  | 18.2 µM (inactive) | 23.9 µM (inactive) | 26.4 µM (inactive) |  |  | 22 µM (inactive) | 58.3 µM (inactive) | > 100 µM (inactive) |  | 35 µM |
| O=C(/N=C(/Nc1ccccc1)SCS/C(=N\C(=O)c1ccco1)Nc1ccccc1)c1ccco1 | > 100 µM (inactive) | 80.2 µM (inactive) | 22.5 µM (inactive) | 28 µM (inactive) | 16.9 µM (inactive) | 26.5 µM (inactive) | 29.4 µM (inactive) | 23.2 µM (inactive) |  |  | 37.2 µM (inactive) | > 100 µM (inactive) | 32 µM (inactive) | 33.9 µM (inactive) |  | 27.4 µM (inactive) | > 100 µM |
| CCN(CC)c1ccc(/N=N\c2ccc(-c3nc4ccc[n+](C)c4s3)cc2)cc1 | 2.79 µM (inactive) | 7.83 µM (inactive) | 6.07 µM (inactive) | 6.5 µM (inactive) | 9.4 µM (inactive) | 17.8 µM (inactive) | 19.7 µM (inactive) | 11 µM (inactive) | 1.77 µM (inactive) | 4.5 µM (inactive) | 3.53 µM (inactive) |  | 4.07 µM (inactive) | 24 µM (inactive) | 16.1 µM (inactive) | 3.06 µM (inactive) | 16.7 µM |
| CN(C)CCC1(C2=CCCC2)CC/C(=C\c2ccc3c(c2)OCO3)C1=O (stereo unspecified) | 23.7 µM (inactive) | 16.9 µM (inactive) | 14.4 µM (inactive) |  |  | 16 µM (inactive) |  | 16 µM (inactive) | 14.3 µM (inactive) |  | 13.2 µM (inactive) | 14.3 µM (inactive) | 15.6 µM (inactive) | 15.8 µM (inactive) |  |  | 13.9 µM |
| CC1=C2C(O)C(C(C)C(=O)NCC(C)C)CCC2(C)C=CC1=O (stereo unspecified) | > 100 µM (inactive) | > 100 µM (inactive) | > 100 µM (inactive) | > 100 µM (inactive) | > 100 µM (inactive) | > 100 µM (inactive) | > 100 µM (inactive) | > 100 µM (inactive) | > 100 µM (inactive) |  | > 100 µM (inactive) | > 100 µM (inactive) | > 100 µM (inactive) | > 100 µM (inactive) |  | > 100 µM (inactive) | > 100 µM |
| O=C1N[C@@H]2CCCC[C@@H]2C12CCCCC2 | > 100 µM (inactive) |  | > 100 µM (inactive) | > 100 µM (inactive) | > 100 µM (inactive) | > 100 µM (inactive) |  | > 100 µM (inactive) | > 100 µM (inactive) | > 100 µM (inactive) | > 100 µM (inactive) | > 100 µM (inactive) | > 100 µM (inactive) | > 100 µM (inactive) | > 100 µM (inactive) |  |  |
| NC(=O)CCC(N=C(N)c1csc(C2OC(CO)C(O)C2O)n1)C(=O)O (stereo unspecified) | > 100 µM (inactive) | > 100 µM (inactive) | > 100 µM (inactive) |  | > 100 µM (inactive) | > 100 µM (inactive) | > 100 µM (inactive) | > 100 µM (inactive) | > 100 µM (inactive) |  |  | > 100 µM (inactive) | > 100 µM (inactive) | > 100 µM (inactive) | > 100 µM (inactive) | > 100 µM (inactive) | > 100 µM |
| Cc1cccc(Cl)c1NC(N)=S | 19 µM (inactive) |  | 51.3 µM (inactive) | 82.8 µM (inactive) | 47.1 µM (inactive) | 73.8 µM (inactive) | 43.7 µM (inactive) | 33.7 µM (inactive) | 38.4 µM (inactive) |  | 17.4 µM (inactive) | 55.1 µM (inactive) | 20.8 µM (inactive) | 48.2 µM (inactive) | 44.4 µM (inactive) |  | 18.4 µM |
| C=CC12CN(C)C3C4COC(CC41)C1(C(=O)Nc4ccccc41)C32 (stereo unspecified) | > 195 µM (inactive) | > 148 µM (inactive) | 173 µM (inactive) | 6.67 µM (inactive) | 146 µM (inactive) | > 200 µM (inactive) | > 200 µM (inactive) | > 200 µM (inactive) | 152 µM (inactive) |  | 158 µM (inactive) | 175 µM (inactive) | > 156 µM (inactive) | > 200 µM (inactive) | > 20 µM (inactive) | 44.7 µM (inactive) | > 195 µM |
| O=c1cccccc1NCCOCCNc1cccccc1=O | > 100 µM (inactive) | > 100 µM (inactive) | > 100 µM (inactive) | > 100 µM (inactive) | 16.9 µM (inactive) | > 100 µM (inactive) | > 100 µM (inactive) |  | > 100 µM (inactive) |  | > 100 µM (inactive) | > 100 µM (inactive) | > 100 µM (inactive) | > 100 µM (inactive) | > 100 µM (inactive) | > 100 µM (inactive) | > 100 µM |
| Cc1ccc2nc(/C(=C/c3ccc(/C=C(\NC(=O)c4ccccc4)c4nc5ccc(C)cc5[nH]4)c(C)c3)NC(=O)c3ccccc3)[nH]c2c1 | 16.6 µM (inactive) | 5.13 µM (inactive) | 3.45 µM (inactive) | 26.4 µM (inactive) | 7.08 µM (inactive) |  | 35.2 µM (inactive) | 10.2 µM (inactive) |  | 27.2 µM (inactive) | 18.1 µM (inactive) | 25.2 µM (inactive) | 22.7 µM (inactive) | 12.5 µM (inactive) | 13.7 µM (inactive) | 22.2 µM (inactive) | 3.13 µM |
| CCCCCCCCCCCCCCNCC(OC)OC |  | 16.4 µM (inactive) | 18.5 µM (inactive) | 17.1 µM (inactive) | 13.8 µM (inactive) | 19.7 µM (inactive) |  | 16.9 µM (inactive) | 5.25 µM (inactive) |  | 13.1 µM (inactive) | 16.5 µM (inactive) | 16.3 µM (inactive) | 18.2 µM (inactive) | 18.7 µM (inactive) | 16.9 µM (inactive) | 11.8 µM |
| C=C(C)C(=O)OC1C/C(CO)=C\C(O)C/C(C)=C/C2OC(=O)C(=C)C21 (stereo unspecified) | 17.3 µM (inactive) | 17 µM (inactive) | 22.2 µM (inactive) | 27.8 µM (inactive) | 32.4 µM (inactive) | > 100 µM (inactive) | 22.8 µM (inactive) | 21 µM (inactive) |  | 19.9 µM (inactive) | 17.5 µM (inactive) | 17.3 µM (inactive) | > 100 µM (inactive) | 25.2 µM (inactive) | > 100 µM (inactive) | 12.8 µM (inactive) | 14.1 µM |
| COC(=O)c1sc(C(=O)OC)c2c1C[S+]([O-])C2 | > 100 µM (inactive) | > 100 µM (inactive) | > 100 µM (inactive) | > 100 µM (inactive) | > 100 µM (inactive) | > 100 µM (inactive) | > 100 µM (inactive) | > 100 µM (inactive) | > 100 µM (inactive) |  | > 100 µM (inactive) | > 100 µM (inactive) | > 100 µM (inactive) | > 100 µM (inactive) | > 100 µM (inactive) | > 100 µM (inactive) | > 100 µM |
| NNC(=O)N/N=C1/C(=O)N(c2ccc(Cl)c(Cl)c2)C(=O)C(=O)C1c1nc2ccccc2o1 (stereo unspecified) |  | > 100 µM (inactive) | > 100 µM (inactive) | > 100 µM (inactive) | > 100 µM (inactive) | > 100 µM (inactive) | > 100 µM (inactive) | > 100 µM (inactive) | 42.9 µM (inactive) |  | > 100 µM (inactive) | > 100 µM (inactive) | > 100 µM (inactive) | 45.3 µM (inactive) | > 100 µM (inactive) | 62.4 µM (inactive) | > 100 µM |
